Publication PMC12680861, “Comparative analysis of LJ-4378 and tirzepatide in mouse models of obesity and weight regain” (Archives of Pharmacal Research, 2025)

Experiments:
mice = experiment: Serum markers of hepatic, renal and cardiac toxicity; format: in vivo; settings: 1 mg/kg, 2 weeks
Experimental: Serum aspartate aminotransferase (AST), alanine aminotransferase (ALT), blood urea nitrogen (BUN), Creatinine, Creatine kinase MB (CKMB), and lactate dehydrogenase (LDH) levels were analyzed with Fujifilm Dri-Chem 3500 s (Fujifilm, Kanagawa, Japan) according to the manufacturer’s instructions. The slides GOT/AST-P III, GPT/ALT-P III, BUN-P III, CRE-P III, CKMB-P, and LDH-P III were used.
a-f. Serum levels of aspartate transaminase (AST), alanine transaminase (ALT), blood urea nitrogen (BUN), creatinine, creatine kinase MB (CKMB), and lactate dehydrogenase (LDH) in 2 weeks of LJ-4378 (1mg/kg) treatment in mice. n = 3. Statistical significance was determined using an unpaired two-tailed t-test.

WR mice = experiment: WR model: indirect calorimetry and adipose immunoblot after treatment cessation; format: in vivo, C57BL/6 J male mice
Excerpt: To assess post-treatment weight rebound (WR), the mice previously treated with vehicle, LJ-4378, or TZP were maintained on HFD for an additional 4 weeks following treatment cessation. Treatment protocols for the WR groups were identical to those of the HFD groups. In total, nine experimental groups were established: NCD + CTL, NCD + LJ, NCD + TZP; HFD + CTL, HFD + LJ, HFD + TZP; and WR + CTL, WR + LJ, WR + TZP. The volume of oxygen consumed (VO2), carbon dioxide produced (VCO2), respiratory exchange ratio (RER), energy expenditure, activity, and food intake were measured with PhenoMaster (TSE Systems, Bad Homburg, Germany). Indirect calorimetry was performed under controlled conditions, with a stable ambient temperature of 24 °C and a 12 h light/12-h dark cycle. Mice fed HFD were administered vehicle, LJ-4378, or TZP for 14 days, and the last 2 days of treatment were conducted during indirect calorimetry analysis. The WR model was examined by indirect calorimetry after 2 and 4 weeks of the weight regaining phase.
For protein extraction, we utilized PRO-RERP Protein Extraction Solution (17081, iNtRON Biotechnology, Gyeonggi-do, Korea), supplemented with […] Protease Inhibitor (S8820, Sigma, St. Louis, MO, USA) and PhosSTOP phosphatase inhibitor (#4906837001, Roche, Basel, Switzerland). Protein concentrations were determined using the Pierce BCA protein assay Kit (#23227, Thermo Fisher, Waltham, Massachusetts, USA) by measuring absorbance at 562 nm with a MultiSkan GO spectrophotometer (Thermo Fisher). The quantified proteins were loaded and separated in 12% SDS-PAGE gels and transferred to polyvinylidene difluoride (PVDF) membranes (Bio-Rad, Hercules, CA, USA). Membranes were blocked in 5% bovine serum albumin or skim milk in Tris-buffered saline with 0.1% Tween 20 (TBST) for 1 h, followed by overnight incubation with primary antibodies. The next day, membranes were washed 3 times with TBST and incubated for 1 h with horseradish peroxidase (HRP)-conjugated secondary antibody: Goat anti-rabbit (1:3000, #31460, Thermo Fisher) and Goat anti-Mouse IgG (1:3000, 115–035-174, Jackson ImmunoResearch). After secondary antibody incubation, membranes were washed 3 times with TBST and detected with the Fusion Solo chemiluminescence imaging system (Vilber Lourmat, France). EvolutionCapt (version 17.03) software and the ImageJ (National Institutes of Health, Bethesda, MD, USA) program were used for analysis and to quantify the protein level.

plasma protein = experiment: Plasma protein binding, Rapid Equilibrium Dialysis (RED); format: in vitro ADME, human; settings: 10 μM, 37 °C, 4 h
Experimental: The plasma protein binding of LJ-4378 was evaluated using the Rapid Equilibrium Dialysis (RED) method with 100% plasma from human (Biochemed, BC22089NCP), rat (Innovative, IRT-N), and mouse (Biochemed, 029-APSC-MP), all treated with sodium citrate as an anticoagulant. The RED device (ThermoFisher Scientific, #89809) and reusable base plate (ThermoFisher Scientific, #89811) were used with an 8 K MWCO membrane. Test compounds were added to plasma at a final concentration of 10 μM and dialyzed against phosphate-buffered saline (PBS, pH 7.4; Hyclone, #SH30256.01) at 37 °C for 4 h. After incubation, equal volumes of plasma and PBS samples were mixed with blank PBS and blank plasma, respectively, followed by the addition of acetonitrile containing chlorpropamide (TRC, C424800) as the internal standard. […] All measurements were performed in duplicate with a deviation of less than 15% between replicates. The free fraction (% Free) was calculated as (concentration in buffer chamber/concentration in plasma chamber) × 100, and the bound fraction (% Bound) was obtained by subtracting % Free from 100. In cases where measurements were unstable, deviations greater than 15% were allowed.

Plasma stability assay [1] = format: in vitro ADME, human; settings: 37 °C, 30 min
Experimental: (§1) The plasma stability of LJ-4378 was evaluated using 100% plasma obtained from human (Biochemed, BC22089NCP, sodium citrate), rat (Innovative, IRT-N, sodium citrate), and mouse (Biochemed, 029-APSC-MP, sodium citrate). 10 Μm of LJ-4378 was added to the plasma, and samples were incubated at 37 °C for 0, 30, and 120 min. At each time point, an aliquot of the plasma was removed and mixed with acetonitrile containing the internal standard, chlorpropamide (TRC, C424800). […] The supernatant was injected into the LC–MS/MS system for quantification of the remaining compound. Analysis was performed using a Nexera XR system (Shimadzu, Japan) with a TSQ Vantage mass spectrometer (Thermo, USA). […] Data acquisition was conducted in MRM mode using Xcalibur software (version 4.4). All experiments were performed in duplicate with a deviation within 15%, and the percentage of compound remaining (% Remaining) at each time point was calculated relative to the non-incubated control sample. For quality control, procaine and enalapril (each at 10 μM) were used as reference compounds and were confirmed to fall within acceptable ranges.

Plasma stability assay [2] = format: in vitro ADME, mouse; settings: 37 °C, 30 min
Experimental: as §1

[3] = design: method as in Jastreboff et al. [2022]; Sattar et al. [2022]; settings: over 72 weeks; ref Jastreboff et al. [2022]; Sattar et al. [2022]; cited from earlier work
[4] = two weeks after treatment cessation

Row | Compound | hepatic, renal, and cardiac injury markers (AST, ALT, BUN, creatinine, CKMB, LDH) (mice) | P-HSL and mitochondrial proteins in BAT and iWAT, versus WR controls and TZP (WR mice; 2 weeks after treatment cessation) | energy expenditure, ANCOVA adjusted for body mass, versus vehicle or TZP (WR mice; 2 weeks post-treatment, WR) | elevated energy expenditure after 4 weeks of WR (WR mice; 4 weeks post-treatment) | VO2, VCO2 and energy expenditure compared with TZP-treated group (WR mice; [4]) | VO2, VCO2 and energy expenditure compared with WR controls (WR mice; [4]) | Plasma free fraction (% Free), Human (plasma protein) [%] | % Remaining compound, Human plasma 30 min (Plasma stability assay [1]) [%] | % Remaining compound, Mouse plasma 30 min (Plasma stability assay [2]) [%] | weight reductions in clinical studies [3]
1 | CCCCC#Cc1nc(N)c2ncn([C@@H]3SC[C@@H](O)[C@H]3O)c2n1 [LJ-4378] | no evidence of organ toxicity | higher levels | higher energy expenditure | no longer evident | significantly higher | elevated | 30.1 | 97.0 | 98.4 | 
2 | Tirzepatide [TZP, reference compound] |  |  |  |  |  |  |  |  |  | up to 22.5%
